Data taken from publication PMC5362455, “Molecularly targeted co-delivery of a histone deacetylase inhibitor and paclitaxel by lipid-protein hybrid nanoparticles for synergistic combinational chemotherapy” (Oncotarget, 2017).

Tests used:
[1] = test system: HepG2 tumor-bearing xenograft mice; assay: In vivo antitumor study; set-up: species or system BALB/c nude mice; conditions: 5 mg/kg i.v., days 1, 4, 7, 10
Method: HepG2 cell-bearing xenograft mice models were developed by subcutaneously injecting 1 × 10^7 cells/100 μl into the rear flanks of 5-week-old male BALB/c nude mice (Orient Ltd. Osan, South Korea). After two weeks of initial implantation, animals were randomly divided into six groups (n = 6 per group). Respective formulations were injected at a dose of 100 μg/100 μL in 750 μg carrier by tail vein four times every 3 days. Tumors were measured twice weekly using a digital caliper and the tumor volume (V) was calculated as, V = ((width)^2 x length)/2. The animals were sacrificed after four weeks of treatment and the primary tumor was excised, weighed, and subjected to further analysis.

[2] = test system: red blood cells (RBC); assay: Hemolytic analysis; conditions: male, Sprague-Dawley, rat
Method: The experimental protocol was approved by
the Institutional Animal Ethical Committee, Yeungnam
Briefly, the rat femoral artery
was cannulated and whole blood samples were withdrawn.
centrifugation at 3500 rpm for 10 min. The degree of
Hemolytic analysis hemolysis was determined by measuring the absorbance
of the supernatant at 540 nm.
Hemolytic toxicity was determined in a male
Sprague-Dawley rat after treatment with different

[3] = test system: HepG2 xenograft tumor masses; assay: Histomorphometric and immunohistochemical analysis of tumor masses; format: in vivo, BALB/c nude mice; conditions: for Tumor cell volumes: H&E, six histological fields; for Immunolabeled cell percentages: CD31 (PECAM-1) / Immunolabeled cell percentages: Caspase-3 / Immunolabeled cell percentages: Ki-67 / Immunolabeled cell percentages: PARP: tumor mass; for Caspase-3-immunolabeled cells: tumor of treated mice
Method: Xenografted tumor masses were cut and fixed in 10% neutral buffered formalin, embedded in paraffin, serially sectioned (3–4 μm), and stained with H&E prior to histopathological examinations under a light microscope (Nikon, Tokyo, Japan). The tumor cell volumes and intact tumor cell-occupied regions (%/mm^2 of tumor mass) were calculated using a computer-based automated image analyzer (iSolution FL ver 9.1, IMT i-solution Inc., Quebec, Canada).
The apoptotic markers, caspase-3, PARP, CD31, and Ki67 were investigated immunohistochemically using purified primary antibodies and biotinylated secondary antibodies, with avidin-biotin-peroxidase complex (ABC) and a peroxidase substrate kit (Vector Labs, Burlingame, CA, USA). Briefly, endogenous peroxidase activity was blocked with methanol and 0.3% H2O2 for 30 min, and non-specific immunoglobulin binding was blocked with normal horse serum blocking solution in 10 mM citrate buffer (pH 6.0). Tissue sections were incubated with primary antisera overnight at 4°C in a humidity chamber, and then incubated with biotinylated universal secondary antibodies and ABC reagents for 1 h at room temperature. Finally, sections were reacted with the peroxidase substrate kit for 3 min at room temperature. Cells were counted as immunopositive if they had > 20% immunoreactivity to the apoptotic marker (caspase-3 or PARP). The percentage region occupied by caspase-3- and PARP-positive cells within the tumor mass (%/mm^2 of tumor mass) was measured by an automated image analyzer.

CC(=O)O[C@H]1C(=O)[C@@]2(C)[C@H]([C@H](OC(=O)c3ccccc3)[C@]3(O)C[C@H](OC(=O)[C@H](O)[C@@H](NC(=O)c4ccccc4)c4ccccc4)C(C)=C1C3(C)C)[C@]1(OC(C)=O)CO[C@@H]1C[C@@H]2O [PTX, Paclitaxel]
Tumor growth (in words) [1]: slightly inhibited tumor growth
hemolysis at 30 min, 100 µg/mL [2]: ~25%
Tumor cell volumes [3]: 53.84 ± 3.18 %/mm2 of tumor mass
Immunolabeled cell percentages: CD31 (PECAM-1) [3]: 30.54 ± 4.09 %/mm2 of tumor mass
Immunolabeled cell percentages: Caspase-3 [3]: 30.34 ± 5.00 %/mm2 of tumor mass
Immunolabeled cell percentages: Ki-67 [3]: 44.90 ± 5.31 %/mm2 of tumor mass
Immunolabeled cell percentages: PARP [3]: 29.59 ± 3.04 %/mm2 of tumor mass
Caspase-3-immunolabeled cells [3]: 30.34%

O=C(CCCCCCC(=O)Nc1ccccc1)NO [VOR, Vorinostat]
Tumor growth (in words) [1]: slightly inhibited tumor growth
hemolysis at 30 min, 100 µg/mL ([2]; isolated red blood cells (RBC) suspension): ~40%
Tumor cell volumes [3]: 60.51 ± 10.92 %/mm2 of tumor mass
Immunolabeled cell percentages: CD31 (PECAM-1) [3]: 29.70 ± 2.52 %/mm2 of tumor mass
Immunolabeled cell percentages: Caspase-3 [3]: 26.31 ± 7.48 %/mm2 of tumor mass
Immunolabeled cell percentages: Ki-67 [3]: 42.64 ± 4.65 %/mm2 of tumor mass
Immunolabeled cell percentages: PARP [3]: 27.64 ± 3.22 %/mm2 of tumor mass
Caspase-3-immunolabeled cells [3]: 26.31%
